Where two headings read alike, the source gives them in different places.
Assays:
T. equi = test: Growth inhibitory fluorescence assay in vitro, T. equi; type: cell-based, Theileria equi; settings: for Selective index HFF: EC50 HFF / IC50 T. equi; for Selective index MDBK: EC50 MDBK / IC50 T. equi; for Selective index NIH/3T3: EC50 NIH/3T3 / IC50 T. equi; for IC50: Theileria equi, T. equi in vitro culture, fluorescence assay, 96 h
Protocol: (§1) Texas strain of B. bovis and Argentina strain of B. bigemina were grown using bovine red blood cells (RBCs, collected from cattle farm of Obihiro University of Agriculture and Veterinary Medicine and stored at 4°C) in medium 199 (M199; Sigma-Aldrich, Tokyo, Japan) supplemented with 40% bovine serum, while RPMI 1640 medium (Sigma-Aldrich, Tokyo, Japan) was used for B. divergens (German strain) cultivation. The United States Department of Agriculture (USDA) strain of T. equi was grown in equine RBCs (collected from horse farm of Obihiro University of Agriculture and Veterinary Medicine and stored at 4°C) in M199 supplemented with 40% equine serum, and hypoxanthine (MP Biomedicals, Santa Ana, CA, USA) at a final concentration of 13.6 μg/ml was used as a vital supplement, while GIT medium was used for B. caballi (USDA strain) cultivation. Sixty μg/ml of streptomycin, 0.15 μg/ml of amphotericin B, and 60 U/ml of penicillin G (Sigma-Aldrich, Tokyo, Japan) were added to all media to prevent fungal and bacterial contamination. All parasite cultures were maintained for a long time in a microaerophilic stationary-phase culture system.
(§2) The inhibition assay was conducted according to the previously described protocol. Briefly, different concentrations of CRY, DA, CF, and AQ were added in triplicate in 96-well plates with 1% parasitemia and 2.5% HCT for B. bovis and B. bigemina and 5% HCT for B. divergens, B. caballi, and T. equi. The plates were incubated in a humidified incubator with 5% CO2, 5% O2, and 90% N2 for 96 h without changing the media. After 96 h, 100 μl of lysis buffer containing 2 × SG1 was directly added to each well and the plates were then wrapped in aluminum foil for protection from direct light and incubated for 6 h at room temperature. Afterward, the fluorescence was measured using a fluorescence spectrophotometer (Fluoroskan Ascent, Thermo Fisher Scientific, USA) at 485 nm excitation and 518 nm emission wavelengths. The relative fluorescence value was set to percentages after subtracting the mean values of the negative control. The experiment was repeated thrice.
(§3) The IC50 values of CRY, DA, CF, and AQ were determined using the nonlinear regression curve fit in GraphPad Prism (GraphPad Software Inc., San Diego, CA, USA). Combination index (CI) values for the drug combination were calculated using CompuSyn software, and the degree of synergism was determined as the weighted average of CI values using a formula [(1 x IC50) + (2 x IC75) + (3 x IC90) + (4 x IC95)]/10 [30]. The differences in parasitemia and hematology profiles in the B. microti–infected mice were analyzed using an independent Student’s t-test and one-way ANOVA test using GraphPad Prism version 5.0 for Windows (GraphPad Software Inc., San Diego, CA, USA). A P-value < 0.05 was considered statistically significant.

B. microti = test: Chemotherapeutic effect against B. microti in mice (parasitemia); type: in vivo, Babesia microti; settings: for day p.i. on which parasitemia was undetectable by microscopy / peak parasitemia level: BALB/c mice; for peak parasitemia level: 5 days, day 10
Protocol: Rodent B. microti (Munich strain) was recovered from -80°C stock and injected intraperitoneally (i.p.) in two 8-week-old female BALB/c mice purchased from CLEA Japan (Clea Japan, Tokyo, Japan). The mice were euthanized using an anesthesia system containing isoflurane after parasitemia reached approximately 30% and the blood was collected by cardiac puncture to conduct the in vivo studies.
(§4) The promising effect of CRY in vitro encouraged us to evaluate its in vivo effects against B. microti in mice. The assay was conducted in accordance with the previously described protocol. In two separate trials, 35 female 8-week-old BALB/c mice, housed under a pathogen-free environment with controlled humidity, temperature (22°C) and a 12 h light/ dark cycle were caged in seven groups, each group consisting of five mice. Six groups were i.p. injected with 0.5 ml of inoculum (1×10^7 B. microti iRBCs), while the seventh group was left uninfected and untreated to act as a negative control. When the average parasitemia in all infected mice reached approximately 1%, the 5-day drug treatment was initiated. The first and second groups were i.p. injected with 25 mg/kg body weight (BW) of DA and 5 mg/kg BW of CRY, respectively. The third group received 20 mg/kg BW of AQ orally, while the fourth and fifth groups were administered a combination of 2.5 mg/kg BW CRY + 12.5 mg/kg BW DA and 2.5 mg/kg BW CRY + 10 mg/kg AQ via a route similar to that of the single-drug treatment, respectively. The sixth group received 5% DMSO in physiological saline i.p. as a positive control. Parasitemia and hematology profiles (RBCs, hemoglobin (HGB), and HCT) were monitored every 2 and 4 days by microscopic examination and hematology analyzer (Celltac α MEK-6450, Nihon Kohden Corporation, Tokyo, Japan), respectively. On day 49, all mice were euthanized using an anesthesia system containing isoflurane and the blood was collected by cardiac puncture for PCR detection of the parasites.

B. divergens = test: Growth inhibitory fluorescence assay in vitro, B. divergens; type: cell-based, Babesia divergens; settings: for IC50: Babesia divergens; for Selective index HFF: EC50 HFF / IC50 B. divergens; for Selective index MDBK: EC50 MDBK / IC50 B. divergens; for Selective index NIH/3T3: EC50 NIH/3T3 / IC50 B. divergens
Protocol: as §1, §2, §3

[1] = system: B. microti small-subunit rRNA (ss-rRNA) gene; test: Nested PCR detection of B. microti DNA in blood of treated mice; type: in vivo, Babesia microti
Protocol: as §4
The nested PCR (nPCR) that targeted the B. microti small-subunit rRNA (ss-rRNA) gene was performed in accordance with the previously described protocol and the genomic DNA was extracted from blood samples collected from all mice groups on day 49 post-infection (p.i.) using a QIAamp DNA Blood Mini Kit (Qiagen, Tokyo, Japan). PCR cycling conditions were performed as previously described and the bands with an expected size of 154 bp were considered positive.

B. caballi = test: Growth inhibitory fluorescence assay in vitro, B. caballi; type: cell-based, Babesia caballi; settings: for Selective index HFF: EC50 HFF / IC50 B. caballi; for Selective index MDBK: EC50 MDBK / IC50 B. caballi; for Selective index NIH/3T3: EC50 NIH/3T3 / IC50 B. caballi
Protocol: as §1, §2, §3

B. bigemina = test: Growth inhibitory fluorescence assay in vitro, B. bigemina; type: cell-based, Babesia bigemina; settings: for Selective index HFF: EC50 HFF / IC50 B. bigemina; for Selective index MDBK: EC50 MDBK / IC50 B. bigemina; for Selective index NIH/3T3: EC50 NIH/3T3 / IC50 B. bigemina
Protocol: as §1, §2, §3

B. bovis = test: Growth inhibitory fluorescence assay in vitro, B. bovis; type: cell-based, Babesia bovis; settings: for IC50: Babesia bovis, in Bos taurus, B. bovis in vitro culture, fluorescence assay, 96 h; for Selective index HFF: EC50 HFF / IC50 B. bovis; for Selective index MDBK: EC50 MDBK / IC50 B. bovis
Protocol: as §1, §2, §3

[2] = B. divergens in vitro culture, fluorescence assay, 96 h, read-out: IC50

SMILES	Selective index HFF (T. equi)	Selective index MDBK (T. equi)	Selective index NIH/3T3 (T. equi)	IC50 (T. equi) [nM]	IC50 (B. divergens; [2]) [nM]	Selective index HFF (B. divergens)	Selective index MDBK (B. divergens)	Selective index NIH/3T3 (B. divergens)	Selective index HFF (B. caballi)	Selective index MDBK (B. caballi)	Selective index NIH/3T3 (B. caballi)	Selective index HFF (B. bigemina)	Selective index MDBK (B. bigemina)	Selective index NIH/3T3 (B. bigemina)	IC50 (B. bovis) [nM]	Selective index HFF (B. bovis)	Selective index MDBK (B. bovis)	further results
O=C1C(O)=C([C@H]2CC[C@H](c3ccc(Cl)cc3)CC2)C(=O)c2ccccc21 [AQ, atovaquone]	˃ 1052.6	˃ 1052.6	˃ 1052.6	95 ± 0.065	38 ± 0.002	˃ 2631.6	˃ 2631.6	˃ 2631.6	˃ 980.4	˃ 980.4	˃ 980.4	˃ 142.7	˃ 142.7	˃ 142.7	39 ± 0.002	˃ 2564.1	˃ 2564.1	day p.i. on which parasitemia was undetectable by microscopy (B. microti; 20 mg/kg AQ oral): 18 days; peak parasitemia level (B. microti; 20 mg/kg AQ oral): 9%; parasite DNA in blood (nPCR) ([1]; day 49, 20 mg/kg AQ): not detected; Selective index NIH/3T3 (B. bovis; EC50 NIH/3T3 / IC50 B. bovis): ˃ 2564.1
Cn1c2c3ccccc3nc-2cc2ccccc21 [CRY, Cryptolepine hydrate]	˃ 136.9	118.73	130.54	730 ± 0.025	790 ± 0.32	˃ 126.9	109.71	120.62	˃ 166.7	144.45	158.82	˃ 71.4	61.91	68.07	1740 ± 0.37	˃ 57.5	49.81	concentration at which in vitro growth was significantly inhibited (T. equi; T. equi, t-test P = 0.02): 0.078 µM; day p.i. on which parasitemia was undetectable by microscopy (B. microti; 5 mg/kg CRY i.p.): 28 days; peak parasitemia level (B. microti; 5 mg/kg CRY i.p., DMSO control 62.6% on day 8): 12.9%; growth of B. microti in mice (B. microti; CRY 5 mg/kg): effectively inhibited; concentration at which in vitro growth was significantly inhibited (B. divergens; B. divergens, t-test P = 0.003): 0.078 µM; IC50 (B. divergens; B. divergens, fluorescence assay after 96 h, three trials, read-out: IC50 (Fig 1)): 788 ± 320 nM; parasite DNA in blood (nPCR) ([1]; day 49, 5 mg/kg CRY): still detected; concentration at which in vitro growth was significantly inhibited (B. caballi; B. caballi, t-test P = 0.001): 0.03 µM; IC50 (B. caballi; Babesia caballi, B. caballi in vitro culture, fluorescence assay, 96 h): 600 ± 0.53 nM; concentration at which in vitro growth was significantly inhibited (B. bigemina; B. bigemina, t-test P = 0.005): 0.15 µM; IC50 (B. bigemina; Babesia bigemina, B. bigemina in vitro culture, fluorescence assay, 96 h): 1400 ± 0.6 nM; concentration at which in vitro growth was significantly inhibited (B. bovis; B. bovis, t-test P = 0.005): 0.15 µM
